Laboratory results reported in patent US12570675B2, “Boronic acid compounds” (LG CHEM, LTD., priority 2020, dated 2026).

biological target: Proteasome chymotrypsin-like activity (S26 protein from RPMI8226 cells) (Homo sapiens, UniProt P28074); type: biochemical; conditions: S26 protein from RPMI8226 cell extract 2 ug/well, substrate 20 uM, 37° C., 90 minutes; read-out: Proteasome chymotrypsin-like activity inhibition IC50
In short: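 Inhibition is measured in crude proteasome (S26) from RPMI8226 cells at 2 ug/well, using 20 uM substrate specific to each activity: Suc-LLVY-AMC for chymotrypsin-like, Z-LLE-AMC for caspase-like. Compounds span a dilution series from 10 uM.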

Chain of Proteasome chymotrypsin-like activity (S26 protein from RPMI8226 cells) (P28074 60-263 limits assumed): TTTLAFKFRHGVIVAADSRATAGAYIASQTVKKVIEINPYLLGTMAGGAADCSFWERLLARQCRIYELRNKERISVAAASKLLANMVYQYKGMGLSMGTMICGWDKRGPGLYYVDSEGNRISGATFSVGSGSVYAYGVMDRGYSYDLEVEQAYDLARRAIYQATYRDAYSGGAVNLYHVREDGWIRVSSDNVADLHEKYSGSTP

`COc1ccc(COCC2=NOC(Cc3ccccc3)(C(=O)N[C@@H](Cc3ccccc3)B(O)O)C2)cc1` (stereo partly drawn) [Example 275, ((1R)-1-(5-benzyl-3-(((4-methoxybenzyl)oxy)methyl)-4,5-dihydroisoxazol-5-carboxamido)-2-phenylethyl)boronic acid] and `Cc1cc(COCC2=NOC(Cc3ccccc3)(C(=O)N[C@@H](Cc3ccccc3)B(O)O)C2)ccn1` (stereo partly drawn) [Example 277, ((1R)-1-(5-benzyl-3-(((2-methylpyridin-4-yl)methoxy)methyl)-4,5-dihydroisoxazol-5-carboxamido)-2-phenylethyl)boronic acid] cannot be ordered by IC50: less than 50 nM for the first, less than 10 nM for the second.

`Cc1cc(COCC2=NOC(Cc3ccccc3)(C(=O)N[C@@H](CC(C)C)B(O)O)C2)ccn1` (stereo partly shown) [Example 276] and `CC(C)C[C@H](NC(=O)C1(Cc2ccccc2)CC(CNC(=O)c2ccnc(Cl)c2)=NO1)B(O)O` (stereo partly shown) [Example 311] cannot be ordered by IC50: less than 10 nM for the first, less than 10 nM for the second.

`CC(C)C[C@H](NC(=O)C1(Cc2ccccc2)CC(COc2cccc3ccccc23)=NO1)B(O)O` (stereo partly shown) [Example 278] and `O=C(N[C@@H](Cc1ccccc1)B(O)O)C1(Cc2ccccc2)CC(COc2cccc3ccccc23)=NO1` (stereo partly drawn) [Example 279, ((1R)-1-(5-benzyl-3-((naphthalen-1-yloxy)methyl)-4,5-dihydroisoxazol-5-carboxamido)-2-phenylethyl)boronic acid] cannot be ordered by IC50: less than 10 nM for the first, less than 10 nM for the second.

`CC(C)C[C@H](NC(=O)C1(Cc2ccccc2)CC(CNC(=O)c2cccc(C(F)(F)F)c2)=NO1)B(O)O` (stereo partly shown) [Example 280] and `Cc1cccc(C(=O)NCC2=NOC(Cc3ccccc3)(C(=O)N[C@@H](CC(C)C)B(O)O)C2)c1` (stereo partly shown) [Example 307] cannot be ordered by IC50: less than 10 nM for the first, less than 10 nM for the second.

`O=C(NCC1=NOC(Cc2ccccc2)(C(=O)N[C@@H](Cc2ccccc2)B(O)O)C1)c1cccc(C(F)(F)F)c1` (stereo partly drawn) [Example 281, ((1R)-1-(5-benzyl-3-((3-(trifluoromethyl)benzamido)methyl)-4,5-dihydroisoxazol-5-carboxamido)-2-phenylethyl)boronic acid] and `COc1cccc(C(=O)NCC2=NOC(Cc3ccccc3)(C(=O)N[C@@H](Cc3ccccc3)B(O)O)C2)c1` (stereo partly drawn) [Example 285, ((1R)-1-(5-benzyl-3-((3-methoxybenzamido)methyl)-4,5-dihydroisoxazol-5-carboxamido)-2-phenylethyl)boronic acid] cannot be ordered by IC50: less than 10 nM for the first, less than 10 nM for the second.

`COc1ccc(C(=O)NCC2=NOC(Cc3ccccc3)(C(=O)N[C@@H](CC(C)C)B(O)O)C2)cc1` (stereo partly shown) [Example 282] and `CC(C)C[C@H](NC(=O)C1(Cc2ccccc2)CC(CNC(=O)c2ccc(Cl)cc2)=NO1)B(O)O` (stereo partly shown) [Example 287] cannot be ordered by IC50: less than 10 nM for the first, less than 10 nM for the second.

`COc1ccc(C(=O)NCC2=NOC(Cc3ccccc3)(C(=O)N[C@@H](Cc3ccccc3)B(O)O)C2)cc1` (stereo partly drawn) [Example 283, ((1R)-1-(5-benzyl-3-((4-methoxybenzamido)methyl)-4,5-dihydroisoxazol-5-carboxamido)-2-phenylethyl)boronic acid] and `N#Cc1cccc(C(=O)NCC2=NOC(Cc3ccccc3)(C(=O)N[C@@H](Cc3ccccc3)B(O)O)C2)c1` (stereo partly drawn) [Example 317, ((1R)-1-(5-benzyl-3-((3-cyanobenzamido)methyl)-4,5-dihydroisoxazol-5-carboxamido)-2-phenylethyl)boronic acid] cannot be ordered by IC50: less than 10 nM for the first, less than 10 nM for the second.

`COc1cccc(C(=O)NCC2=NOC(Cc3ccccc3)(C(=O)N[C@@H](CC(C)C)B(O)O)C2)c1` (stereo partly shown) [Example 284] and `CC(C)C[C@H](NC(=O)C1(Cc2ccccc2)CC(CNC(=O)c2cccc(C#N)c2)=NO1)B(O)O` (stereo partly shown) [Example 316] cannot be ordered by IC50: less than 10 nM for the first, less than 10 nM for the second.

`CC(C)C[C@H](NC(=O)C1(Cc2ccccc2)CC(CNC(=O)c2ccccc2Cl)=NO1)B(O)O` (stereo partly shown) [Example 286] and `CC(C)C[C@H](NC(=O)C1(Cc2ccccc2)CC(CNC(=O)c2cccn3cnnc23)=NO1)B(O)O` (stereo partly shown) [Example 305] cannot be ordered by IC50: less than 10 nM for the first, less than 10 nM for the second.

`O=C(NCC1=NOC(Cc2ccccc2)(C(=O)N[C@@H](Cc2ccccc2)B(O)O)C1)c1nccc2ccccc12` (stereo partly drawn) [Example 288, ((1R)-1-(5-benzyl-3-((isoquinolin-1-carboxamido)methyl)-4,5-dihydroisoxazol-5-carboxamido)-2-phenylethyl)boronic acid] and `O=C(NCC1=NOC(Cc2ccccc2)(C(=O)N[C@@H](Cc2ccccc2)B(O)O)C1)c1cccc2ccccc12` (stereo partly drawn) [Example 299, ((1R)-1-(3-((1-naphthamido)methyl)-5-benzyl-4,5-dihydroisoxazol-5-carboxamido)-2-phenylethyl)boronic acid] cannot be ordered by IC50: less than 10 nM for the first, less than 10 nM for the second.

`CC[C@H](NC(=O)C1(Cc2ccccc2)CC(CNC(=O)c2nccc3ccccc23)=NO1)B(O)O` (stereo partly drawn) [Example 289, ((1R)-1-(5-benzyl-3-((isoquinolin-1-carboxamido)methyl)-4,5-dihydroisoxazol-5-carboxamido)propyl)boronic acid] and `CC(C)[C@H](NC(=O)C1(Cc2ccccc2)CC(CNC(=O)c2nccc3ccccc23)=NO1)B(O)O` (stereo partly drawn) [Example 290, ((1R)-1-(5-benzyl-3-((isoquinolin-1-carboxamido)methyl)-4,5-dihydroisoxazol-5-carboxamido)-2-methylpropyl)boronic acid] cannot be ordered by IC50: less than 25 nM for the first, less than 10 nM for the second.

`O=C(NCC1=NOC(Cc2ccccc2)(C(=O)N[C@@H](Cc2ccccc2)B(O)O)C1)c1cc(Cl)ccc1Cl` (stereo partly drawn) [Example 296, ((1R)-1-(5-benzyl-3-((2,5-dichlorobenzamido)methyl)-4,5-dihydroisoxazol-5-carboxamido)-2-phenylethyl)boronic acid] and `CC[C@H](NC(=O)C1(Cc2ccccc2)CC(CNC(=O)c2cc(Cl)ccc2Cl)=NO1)B(O)O` (stereo partly drawn) [Example 314, ((1R)-1-(5-benzyl-3-((2,5-dichlorobenzamido)methyl)-4,5-dihydroisoxazol-5-carboxamido)propyl)boronic acid] cannot be ordered by IC50: less than 10 nM for the first, less than 10 nM for the second.

`CC[C@H](NC(=O)C1(Cc2ccccc2)CC(CNC(=O)c2cccn3ccnc23)=NO1)B(O)O` (stereo partly drawn) [Example 297, ((1R)-1-(5-benzyl-3-((imidazo[1,2-a]pyridin-8-carboxamido)methyl)-4,5-dihydroisoxazol-5-carboxamido)propyl)boronic acid] and `CC(C)[C@H](NC(=O)C1(Cc2ccccc2)CC(CNC(=O)c2cccn3ccnc23)=NO1)B(O)O` (stereo partly drawn) [Example 298, ((1R)-1-(5-benzyl-3-((imidazo[1,2-a]pyridin-8-carboxamido)methyl)-4,5-dihydroisoxazol-5-carboxamido)-2-methylpropyl)boronic acid] cannot be ordered by IC50: less than 25 nM for the first, less than 10 nM for the second.

`O=C(NCC1=NOC(Cc2ccccc2)(C(=O)N[C@@H](Cc2ccccc2)B(O)O)C1)c1cccn2ccnc12` (stereo partly drawn) [Example 300, ((1R)-1-(5-benzyl-3-((imidazo[1,2-a]pyridin-8-carboxamido)methyl)-4,5-dihydroisoxazol-5-carboxamido)-2-phenylethyl)boronic acid] and `O=C(NCC1=NOC(Cc2ccccc2)(C(=O)N[C@@H](Cc2ccccc2)B(O)O)C1)c1cccn2cnnc12` (stereo partly drawn) [Example 306, ((1R)-1-(3-(([1,2,4]triazolo[4,3-a]pyridin-8-carboxamido)methyl)-5-benzyl-4,5-dihydroisoxazol-5-carboxamido)-2-phenylethyl)boronic acid] cannot be ordered by IC50: less than 10 nM for the first, less than 10 nM for the second.

`CC(C)C[C@H](NC(=O)C1(Cc2ccccc2)CC(CNC(=O)c2cccc3nccn23)=NO1)B(O)O` (stereo partly shown) [Example 301] and `CC(C)C[C@H](NC(=O)C1(Cc2ccccc2)CC(CNC(=O)c2cccc3ncnn23)=NO1)B(O)O` (stereo partly shown) [Example 312] cannot be ordered by IC50: less than 10 nM for the first, less than 25 nM for the second.

`O=C(NCC1=NOC(Cc2ccccc2)(C(=O)N[C@@H](Cc2ccccc2)B(O)O)C1)c1cccc2nccn12` (stereo partly drawn) [Example 302, ((1R)-1-(5-benzyl-3-((imidazo[1,2-a]pyridin-5-carboxamido)methyl)-4,5-dihydroisoxazol-5-carboxamido)-2-phenylethyl)boronic acid] and `O=C(NCC1=NOC(Cc2ccccc2)(C(=O)N[C@@H](Cc2ccccc2)B(O)O)C1)c1cccc2ncnn12` (stereo partly drawn) [Example 313, ((1R)-1-(3-(([1,2,4]triazolo[1,5-a]pyridin-5-carboxamido)methyl)-5-benzyl-4,5-dihydroisoxazol-5-carboxamido)-2-phenylethyl)boronic acid] cannot be ordered by IC50: less than 10 nM for the first, less than 10 nM for the second.

`CC[C@H](NC(=O)C1(Cc2ccccc2)CC(CNC(=O)c2cccc3ccccc23)=NO1)B(O)O` (stereo partly drawn) [Example 303, ((1R)-1-(3-((1-naphthamido)methyl)-5-benzyl-4,5-dihydroisoxazol-5-carboxamido)propyl)boronic acid] and `CC(C)[C@H](NC(=O)C1(Cc2ccccc2)CC(CNC(=O)c2cccc3ccccc23)=NO1)B(O)O` (stereo partly drawn) [Example 304, ((1R)-1-(3-((1-naphthamido)methyl)-5-benzyl-4,5-dihydroisoxazol-5-carboxamido)-2-methylpropyl)boronic acid] cannot be ordered by IC50: less than 10 nM for the first, less than 10 nM for the second.

`CC(C)[C@H](NC(=O)C1(Cc2ccccc2)CC(CNC(=O)c2cc(Cl)ccc2Cl)=NO1)B(O)O` (stereo partly drawn) [Example 315, ((1R)-1-(5-benzyl-3-((2,5-dichlorobenzamido)methyl)-4,5-dihydroisoxazol-5-carboxamido)-2-methylpropyl)boronic acid] and `CC(C)[C@H](NC(=O)C1(Cc2ccccc2)CC(CNC(=O)c2cccc(Cl)n2)=NO1)B(O)O` (stereo partly drawn) [Example 319, ((1R)-1-(5-benzyl-3-((6-chloropicolinamido)methyl)-4,5-dihydroisoxazol-5-carboxamido)-2-methylpropyl)boronic acid] cannot be ordered by IC50: less than 10 nM for the first, less than 10 nM for the second.

`CC[C@H](NC(=O)C1(Cc2ccccc2)CC(CNC(=O)c2cccc(Cl)n2)=NO1)B(O)O` (stereo partly drawn) [Example 318, ((1R)-1-(5-benzyl-3-((6-chloropicolinamido)methyl)-4,5-dihydroisoxazol-5-carboxamido)propyl)boronic acid] and `COc1cccc(C(=O)NCC2=NOC(Cc3ccccc3)(C(=O)N[C@@H](CC(C)C)B(O)O)C2)n1` (stereo partly shown) [Example 322] cannot be ordered by IC50: less than 25 nM for the first, less than 10 nM for the second.

`CC(=O)Nc1cccc(C(=O)NCC2=NOC(Cc3ccccc3)(C(=O)N[C@@H](CC(C)C)B(O)O)C2)c1` (stereo partly shown) [Example 320] and `CC(C)C[C@H](NC(=O)C1(Cc2ccccc2)CC(CNC(=O)c2cccc(N(C)C)c2)=NO1)B(O)O` (stereo partly shown) [Example 321] cannot be ordered by IC50: less than 10 nM for the first, less than 10 nM for the second.
